{
  "source": "patent US20120316199A1",
  "about": "“COMPOSITIONS AND METHODS FOR TREATING, CONTROLLING, REDUCING, OR AMELIORATING INFLAMMATORY PAIN” (priority 2011, published 2012)",
  "format_in_all_cases": "in vivo, Rabbit (New Zealand)",
  "key": {"[1]": {"system": "protein concentration in the aqueous humor", "assay": "Protein measurement in aqueous humor, rabbit paracentesis model", "conditions": "0.5% formulation, second paracentesis", "protocol": "(§1) Each rabbit was placed in a restraint device and tagged with the alphanumeric code. The formulations were instilled (50 μl) into the conjunctival sac of both eyes 180, 120, 90 and 30 min before the first paracentesis; then 15, 30, 90 min after the first paracentesis. To perform the first paracentesis the animals were anaesthetized by intravenous injection of 5 mg/kg Zoletil® (Virbac; 2.5 mg/kg tiletamine HCl and 2.5 mg/kg zolazepam HCl) and one drop of local anesthetic (Novesina®, Novartis) was administered to the eye. Anterior chamber paracentesis was performed with a 26 G needle attached to a tuberculin syringe; the needle was introduced into the anterior chamber through the cornea, taking care not to damage the tissues. Two hours after the first paracentesis, the animals were sacrificed with 0.4 ml Tanax® (Intervet International B.V.) and the second paracentesis was performed. About 100 μl of aqueous humor were removed at the second paracentesis. Aqueous humor was immediately split in four aliquots and stored at −80° C. until analysis. Then both eyes were enucleated and the iris-ciliary body was carefully excised, placed in polypropylene tubes, and stored at −80° C. until analysis.\nFor protein concentration determination in the aqueous humor we used the Protein Quantification Kit (Fluka; Cat. No. 77371; Lot. No. 1303129). Five microliters of aqueous humor were diluted to 100 μl with water. Twenty microliters of samples and of standards were load into a 96-well plate and recorded in a plate layout. Samples were treated following the assay procedure described in the kit. A microplate reader (GDV, Italy; model DV 990 B/V6) set at 670 nm was used for making the calibration and analyzing the samples.\n(§2) Pupillary diameter, PGE2, protein, PMN, and MPO were expressed as mean±SEM. Statistical analysis was performed using one way ANOVA followed by a Newman-Keuls post hoc test. Clinical score was expressed as % of eyes and the statistical analysis was performed using Kruskal-Wallis followed by a Dunn post hoc test. P<0.05 was considered statistically significant in both cases. Prism 4 software (GraphPad Software, Inc.) was used for the analysis and graphs."}, "[2]": {"system": "MPO activity in iris-ciliary body", "assay": "Myeloperoxidase (MPO) activity in iris-ciliary body, rabbit paracentesis model", "protocol": "as §1\nThe activity of MPO was measured as previously described by Williams et al.[5] The iris-ciliary bodies were carefully dried, weighed and immersed in 1 ml of hexa-decyl-trimethyl-ammonium bromide solution. Then, the samples were sonicated for 10 sec on ice by a ultrasound homogenizer (HD 2070, Bandelin electronic), freeze-thawed three times, sonicated for 10 sec and centrifuged at 14,000 g for 10 min to remove cellular debris. An aliquot of the supernatant (40-200 μl) was diluted to 3 ml with the o-dianisidine 2HCl/H2O2 solution. The change in absorbance at 460 nm was continuously monitored for 5 min by a spectrophotometer (UV/Vis Spectrometer Lambda EZ 201; Perkin Elmer). The slope of the line (Δ/min) was determined for each sample and used to calculate the number of units of MPO in the tissue as follows:\nValues were expressed as units of MPO/g of tissue.\nas §2"}, "[3]": {"system": "PGE2 in the aqueous humor", "assay": "Prostaglandin E2 (PGE2) measurement in aqueous humor, rabbit paracentesis model", "conditions": "0.5% formulation", "protocol": "as §1\nFor the quantitative determination of PGE2 in the aqueous humor we used the PGE2 Immunoassay kit (R&D Systems; Cat. No. KGE004; Lot. No. 240010). Eleven microliters or 16 μl of aqueous humor were diluted to 110 μl or 160 μl with the calibrator diluent solution provided with the kit. One hundred microliters of samples and of standards were load into a 96-well plate and recorded in a plate layout. Samples were treated following the assay procedure described in the kit. A microplate reader (GDV, Italy; model DV 990 B/V6) set at 450 nm (wavelength correction at 540 nm) was used for making the calibration and analyzing the samples.\nas §2"}, "[4]": {"system": "leukocytes (PMN) in aqueous humor", "assay": "Leukocytes (PMN) measurement in aqueous humor, rabbit paracentesis model", "conditions": "0.5% formulation; second paracentesis; group mean", "protocol": "as §1\nFor the determination of the number of leukocytes we used a haernocytometer (Improved Neubauer Chamber; Bright-line, Hausser Scientific) and a Polyvar 2 microscope (Reichert-Jung).\nas §2"}, "[5]": {"system": "pupillary diameter", "assay": "Pupillary diameter measurement, rabbit paracentesis model", "conditions": "0.5% formulation"}, "[6]": {"system": "iris and conjunctival vessels, anterior chamber", "assay": "Clinical evaluation by slit lamp (clinical score), rabbit paracentesis model", "set-up": "key to Clinical Score −180 min / Clinical Score −5 min / Clinical Score +115 min: 0=normal; 1=discrete dilatation of iris and conjunctival vessels; 2=moderate dilatation of iris and conjunctival vessels; 3=intense iridal hyperemia with flare in the anterior chamber; 4=intense iridal hyperemia with flare in the anterior chamber and presence of fibrinous exudates", "conditions": "0.5% formulation"}, "[7]": {"conditions": "5 min before the first paracentesis, raw data per eye"}, "[8]": {"conditions": "5 min before the second paracentesis, raw data per eye"}},
  "note": "Values joined by “and” are separate entries in the source; they are usually repeats but may differ in a detail not shown here. Equal entries are not always repeated.",
  "data": [
    {"smiles": "CCOC(=O)O[C@]1(C(=O)OCCl)CC[C@H]2[C@@H]3CCC4=CC(=O)C=C[C@]4(C)[C@H]3[C@@H](O)C[C@@]21C", "note": "[LE, loteprednol etabonate]", "values": [
      {"measurement": "Protein level in aqueous humor, Mean", "setting": "[1]; group mean", "result": 33.905, "unit": "mg/mL"},
      {"measurement": "Protein level in aqueous humor, raw data", "setting": "[1]; per eye", "result": "36.14 mg/mL and 39.10 mg/mL and 34.69 mg/mL and 26.10 mg/mL and 26.30 mg/mL and 28.16 mg/mL and 40.90 mg/mL and 39.85 mg/mL"},
      {"measurement": "MPO activity in iris-ciliary body", "setting": "[2]; 0.5% LE, individual samples collected after the second paracentesis", "result": 1.01, "unit": "Unit/g"},
      {"measurement": "MPO activity in iris-ciliary body, Mean", "setting": "[2]; 0.5% formulation, after the second paracentesis, group mean", "result": 0.661, "unit": "MPO Unit/g"},
      {"measurement": "PGE2 in aqueous humor, statistical significance versus CTR", "setting": "[3]; p<0.05", "result": "statistically significant versus CTR"},
      {"measurement": "PGE2 level in aqueous humor, Mean", "setting": "[3]; second paracentesis, group mean", "result": 0.672, "unit": "ng/mL"},
      {"measurement": "PMN numbers in aqueous humor, Mean", "setting": "[4]", "result": 28.333, "unit": "number/μl"},
      {"measurement": "Pupillary diameter T2: −5 min", "setting": "[5]; [7]", "result": "6.0 mm and 6.5 mm"},
      {"measurement": "Pupillary diameter T3: +115 min", "setting": "[5]; [8]", "result": "4.5 mm and 5.0 mm and 5.5 mm and 6.0 mm"},
      {"measurement": "Pupillary diameter T1: −180 min", "setting": "[5]; basal, raw data per eye", "result": "6.0 mm and 6.5 mm"},
      {"measurement": "Mean (mm) Δ(T3 − T1) of pupillary diameter", "setting": "[5]; group mean, n=8 eyes", "result": "−0.9", "unit": "mm"},
      {"measurement": "Clinical Score −5 min", "setting": "[6]; [7]", "result": 0},
      {"measurement": "Clinical Score +115 min", "setting": "[6]; [8]", "result": "2 and 1"},
      {"measurement": "Percentage of eyes with clinical score 1", "setting": "[6]; +115 min, N=8 eyes", "result": 75, "unit": "%"},
      {"measurement": "Percentage of eyes with clinical score 2", "setting": "[6]; +115 min, N=8 eyes", "result": 25, "unit": "%"},
      {"measurement": "Clinical Score −180 min", "setting": "[6]; basal, raw data per eye", "result": 0},
      {"measurement": "Clinical score, difference versus CTR (vehicle)", "setting": "[6]; p<0.05, Kruskal-Wallis, Dunn", "result": "significant difference versus CTR"},
      {"measurement": "Percentage of eyes with clinical score 0", "setting": "[6]; −5 min, N=8 eyes", "result": 100, "unit": "%"},
      {"measurement": "Percentage of eyes with clinical score 0", "setting": "[6]; −180 min (basal), N=8 eyes", "result": 100, "unit": "%"}
    ]}
  ]
}
